Consider six molecules from DBAASP.

Among the test systems are Klebsiella pneumoniae; Escherichia coli UB1005; Staphylococcus aureus; Streptococcus agalactiae; Escherichia coli KF111; Escherichia coli KF130; Escherichia coli.
Experiment in all cases: ≥ marks a high value that may be exact or a test limit, other limits are often not marked, values filed in µg/mL are converted to µM
Test [1] concerns Enterococcus casseliflavus ATCC 700327.
The subject of test [2] is Enterococcus faecalis ATCC 29212.
In test [3] the test system is Escherichia coli ATCC 25922.
The subject of test [4] is Klebsiella pneumoniae ATCC 13883.
Test [5] has as its system Pseudomonas aeruginosa ATCC 27853.
Test [6] deals with Staphylococcus aureus ATCC 25923.
In test [7] the test system is Staphylococcus epidermidis ATCC 12228.
The test system of test [8] is Salmonella enterica subsp. enterica serovar Choleraesuis CVCC 503.
For test [9], the system named is Salmonella enterica subsp. enterica serovar Pullorum C79-13.
Test [10] has as its system Salmonella enterica subsp. enterica serovar Typhimurium ATCC 14028.
In test [11] the test system is Salmonella enterica subsp. enterica serovar Typhimurium C77-31.
The test system of test [12] is Staphylococcus aureus ATCC 29213.
For test [13], the system named is Staphylococcus aureus ATCC 43300.
Test [14] concerns Pseudomonas aeruginosa H374.
In test [15] the test system is Pseudomonas aeruginosa H744.
Test [16] has as its system Pseudomonas aeruginosa K799.
Test [17] has as its system Salmonella enterica subsp. enterica serovar Typhimurium ATCC 14028s.
Test [18] concerns Staphylococcus epidermidis.
The subject of test [19] is Aspergillus oryzae NBRC 100959.
In test [20] the test system is Candida viswanathii NBRC 10321.
For test [21], the system named is Escherichia coli NBRC 3972.
In test [22] the test system is Micrococcus luteus NBRC 3333.
Test [23] concerns Staphylococcus epidermidis NBRC 12993.

≈ marks a conversion by molar mass, not a printed value. A value given as a limit tells only on which side of the number the result lay.

A word on the MIC: it is the lowest concentration that inhibits growth of the organism. Lower therefore signals inhibition by little substance. In the case of `CC[C@H](C)[C@H](NC(=O)[C@H](C)NC(=O)CNC(=O)[C@H](CC(C)C)NC(=O)[C@@H](N)Cc1ccccc1)C(=O)N[C@@H](CC(C)C)C(=O)N[C@@H](CCCCN)C(=O)N[C@H](C(=O)NCC(=O)N[C@@H](Cc1cnc[nH]1)C(=O)N[C@@H](C)C(=O)N[C@@H](CC(C)C)C(=O)N[C@@H](C)C(=O)N[C@@H](CCCCN)C(=O)N[C@H](C(=O)N[C@H](C(=O)N[C@@H](CC(C)C)C(=O)N1CCC[C@H]1C(=O)N[C@@H](CCSC)C(=O)N[C@H](C(=O)N[C@H](C(=O)N[C@@H](CC(N)=O)C(=O)N[C@@H](C)C(=O)N[C@@H](Cc1ccccc1)C(=O)N[C@@H](CCCCN)C(=O)N1CCC[C@H]1C(=O)N[C@@H](CCCCN)C(=O)N[C@@H](CCC(N)=O)C(=O)O)[C@@H](C)O)C(C)C)C(C)C)[C@@H](C)O)[C@@H](C)CC` [FLGAILKIGHALAKTVLPMVTNAFKPKQ], the MIC in [1] amounted to 4 µM (≈ 12 µg/mL); in [2], 8 µM (≈ 24.1 µg/mL); in test [3] it was 8 µM (≈ 24.1 µg/mL); in test [4], 8 µM (≈ 24.1 µg/mL); with Klebsiella pneumoniae, 16 µM (≈ 48.1 µg/mL); in [5], 32 µM (≈ 96.2 µg/mL). The MIC was 8 µM (≈ 24.1 µg/mL) in test [6] and 4 µM (≈ 12 µg/mL) in test [7].

Take `CC[C@H](C)[C@H](N)C(=O)N[C@@H](CS)C(=O)N[C@@H](CCCN=C(N)N)C(=O)N[C@@H](CCCCN)C(=O)N1CCC[C@H]1C(=O)N[C@H](C(=O)N[C@H](C(=O)N[C@@H](CS)C(=O)N[C@@H](CCCN=C(N)N)C(=O)N[C@@H](CCCCN)C(=O)N1CCC[C@H]1C(=O)N[C@H](C(=O)N[C@H](C(=O)N[C@@H](CS)C(=O)N[C@@H](CCCN=C(N)N)C(=O)N[C@@H](CCCCN)C(=O)N1CCC[C@H]1C(=O)N[C@H](C(=O)N[C@H](C(=O)N[C@@H](CS)C(=O)N[C@@H](CCCN=C(N)N)C(=O)N[C@@H](CCCCN)C(=O)N1CCC[C@H]1C(=O)N[C@H](C(N)=O)[C@@H](C)CC)[C@@H](C)CC)[C@@H](C)CC)[C@@H](C)CC)[C@@H](C)CC)[C@@H](C)CC)[C@@H](C)CC` [ICRKPIICRKPIICRKPIICRKPI]: the MIC in [2] was above 64 µM; against Escherichia coli UB1005, 2 µM (≈ 5.72 µg/mL); in test [8], 8 µM (≈ 22.9 µg/mL); in test [9], 16 µM (≈ 45.8 µg/mL); in test [10], 2 µM (≈ 5.72 µg/mL); in test [11], 4 µM (≈ 11.4 µg/mL). The MIC in [12] is above 64 µM; in [13] it was above 64 µM; against Staphylococcus aureus, above 64 µM; in [7], above 64 µM; in the test with Streptococcus agalactiae it was at least 64 µM.

Consider `CC[C@H](C)[C@H](N)C(=O)N[C@H](C(=O)N[C@@H](CS)C(=O)N[C@@H](CCCN=C(N)N)C(=O)N[C@@H](CCCCN)C(=O)N1CCC[C@H]1C(=O)N[C@H](C(=O)N[C@H](C(=O)N[C@@H](CS)C(=O)N[C@@H](CCCN=C(N)N)C(=O)N[C@@H](CCCCN)C(=O)N1CCC[C@H]1C(=O)N[C@H](C(=O)N[C@H](C(=O)N[C@@H](CS)C(=O)N[C@@H](CCCN=C(N)N)C(=O)N[C@@H](CCCCN)C(=O)N1CCC[C@H]1C(=O)N[C@H](C(=O)N[C@H](C(N)=O)[C@@H](C)CC)[C@@H](C)CC)[C@@H](C)CC)[C@@H](C)CC)[C@@H](C)CC)[C@@H](C)CC)[C@@H](C)CC` [IICRKPIICRKPIICRKPII], for which the MIC was above 64 µM in test [2]; 4 µM (≈ 9.5 µg/mL) in [3]; 4 µM (≈ 9.5 µg/mL) against Escherichia coli UB1005; 16 µM (≈ 38 µg/mL) in test [8]; at least 32 µM in test [9]; 8 µM (≈ 19 µg/mL) in [10]. Moreover, the MIC in [11] is 8 µM (≈ 19 µg/mL); in test [12] it was above 64 µM; in [13], 64 µM (≈ 152 µg/mL); with Staphylococcus aureus it was above 64 µM; in [7] it was 64 µM (≈ 152 µg/mL); against Streptococcus agalactiae, at least 64 µM.

For `CC[C@H](C)[C@H](NC(=O)[C@H](C)NC(=O)[C@H](CCCCN)NC(=O)[C@H](CC(C)C)NC(=O)[C@H](C)NC(=O)[C@@H](NC(=O)[C@H](Cc1cnc[nH]1)NC(=O)[C@H](CC(C)C)NC(=O)[C@@H](NC(=O)[C@@H](NC(=O)[C@H](CCCCN)NC(=O)[C@@H](NC(=O)[C@H](C)NC(=O)[C@H](CO)NC(=O)[C@H](CCCCN)NC(=O)[C@H](Cc1ccccc1)NC(=O)[C@@H](NC(=O)[C@H](CCCCN)NC(=O)[C@H](CC(C)C)NC(=O)[C@H](Cc1ccccc1)NC(=O)[C@H](CO)NC(=O)[C@H](CCCCN)NC(=O)[C@H](Cc1c[nH]c2ccccc12)NC(=O)[C@@H](N)CCCCN)[C@@H](C)O)C(C)C)[C@@H](C)O)C(C)C)[C@@H](C)O)C(=O)N[C@@H](CO)C(=O)N[C@@H](CO)C(=O)O` [KWKSFLKTFKSAVKTVLHTALKAISS], the MIC against Escherichia coli KF111 was found to be 0.342 µM (≈ 1 µg/mL); in the test with Escherichia coli KF130, 0.342 µM (≈ 1 µg/mL); against Escherichia coli UB1005, 0.171 µM (≈ 0.5 µg/mL); in the test with Escherichia coli it was 0.171 µM (≈ 0.5 µg/mL); in [5], 4 µM (≈ 11.7 µg/mL); in test [14], 0.685 µM (≈ 2 µg/mL). Moreover, the MIC in test [15] turned out to be 0.685 µM (≈ 2 µg/mL); in test [16], 0.685 µM (≈ 2 µg/mL); in [17], 1.37 µM (≈ 4 µg/mL); in the test with Staphylococcus aureus it was 1.37 µM (≈ 4 µg/mL); in [18], 1.37 µM (≈ 4 µg/mL).

In the case of `CC[C@H](C)[C@H](NC(=O)[C@H](C)NC(=O)[C@H](CCCCN)NC(=O)[C@H](CC(C)C)NC(=O)[C@H](C)NC(=O)[C@@H](NC(=O)[C@H](Cc1cnc[nH]1)NC(=O)[C@H](Cc1ccccc1)NC(=O)[C@@H](NC(=O)[C@@H](NC(=O)[C@H](CCCCN)NC(=O)[C@H](C)NC(=O)[C@@H]1CCCN1C(=O)[C@H](CO)NC(=O)[C@H](CCCCN)NC(=O)[C@H](CC(C)C)NC(=O)[C@@H](NC(=O)[C@H](CCCN=C(N)N)NC(=O)[C@H](CC(C)C)NC(=O)[C@H](Cc1ccccc1)NC(=O)[C@H](CO)NC(=O)[C@H](CCCCN)NC(=O)[C@H](Cc1c[nH]c2ccccc12)NC(=O)[C@@H](N)CCCCN)[C@@H](C)O)[C@@H](C)O)C(C)C)[C@@H](C)O)C(=O)N[C@@H](CO)C(=O)N[C@@H](CO)C(=O)O` [KWKSFLRTLKSPAKTVFHTALKAISS], the MIC against Escherichia coli KF111 is 0.339 µM (≈ 1 µg/mL); against Escherichia coli KF130, 0.339 µM (≈ 1 µg/mL); against Escherichia coli UB1005, 0.17 µM (≈ 0.5 µg/mL); in the test with Escherichia coli, 0.17 µM (≈ 0.5 µg/mL); in test [14], 2.72 µM (≈ 8 µg/mL); in test [15], 2.72 µM (≈ 8 µg/mL). Also, the MIC in test [16] is 5.43 µM (≈ 16 µg/mL); in test [17], 1.36 µM (≈ 4 µg/mL); against Staphylococcus aureus, 10.9 µM (≈ 32 µg/mL); in [18], 1.36 µM (≈ 4 µg/mL).

As for `CC[C@H](C)[C@H](NC(=O)[C@H](CCCCN)NC(=O)[C@@H](N)CCCN=C(N)N)C(=O)N[C@@H](CCCCN)C(=O)N[C@@H](CCCN=C(N)N)C(=O)N[C@@H](Cc1ccc(O)cc1)C(=O)N[C@@H](CC(C)C)C(=O)N[C@@H](CCCN=C(N)N)C(=O)N[C@@H](CCCN=C(N)N)C(=O)N[C@@H](CCSC)C(=O)N[C@H](C(=O)N[C@H](C(=O)N[C@@H](Cc1c[nH]c2ccccc12)C(=O)O)[C@@H](C)CC)[C@@H](C)CC` [RKIKRYLRRMIIW], the MIC was 13.6 µM (≈ 25 µg/mL) in [19]; 27.3 µM (≈ 50 µg/mL) in test [20]; at least 218 µM in test [21]; 13.6 µM (≈ 25 µg/mL) in test [22]; 13.6 µM (≈ 25 µg/mL) in test [23].
